Measured values published in PMC5645319, “An Integrin-Targeted, Highly Diffusive Construct for Photodynamic Therapy” (Scientific Reports, 2017).

What was measured:
monolayer OVCAR5 cells [1] = conditions: 5 µM concentration, no light; 'has been observed', no reference given; cited from earlier work
Description: To assess the ability of the construct to carry out PDT, monolayer OVCAR5 cells were incubated with the EtNBS construct and illuminated with 660 nm light (Fig. 7). […] This is true even though the construct is more efficient in the generation of reactive radical species. This difference in light dose between the free molecule and its targeted construct, however, is not entirely surprising; similar higher light doses have been found necessary in immunoconjugates based on the benzoporphyrin der ...

OVCAR5 cells = assay: Uptake in monolayer cell cultures, confocal fluorescence microscopy; assay type: cell-based
Description: (§1) All imaging experiments were carried out on an Olympus FV1000 confocal microscope with a stage-top incubator (Prior) to maintain humidity, 37 °C temperature, and 5% CO2 during imaging sessions. For each sample, imaging was restricted to 15 minutes from the time cells were removed from the incubator to avoid any artifacts related to cell death. Image acquisition parameters were chosen which captured signal from both samples/cell lines without any saturation of signal and were kept uniform between samples to allow for direct one-to-one comparison of signal. These parameters were also used to image cells treated with known concentrations of EtNBS, to allow for relative comparison of uptake against known references. For every imaging experiment and conditions, a minimum of three areas of interests were collected and analyzed.
(§2) Stably transfected OVCAR5 cells overexpressing the alpha5 integrin as well as wild-type OVCAR5 cells were plated as described above in glass-bottom 35 mm culture dishes (P35G-0.170-14-C, MatTek) at a density of 200,000 cells per dish 24 hours prior to the start of experiments. Cells were administered the photosensitizer at a concentration of 10 µM in warmed complete cell culture medium and incubated for 3 hours in a 37 °C incubator under 5% CO2. […]

[2] = Absorption spectroscopy to assess photosensitizer aggregation in water; assay type: physicochemical; conditions: for Aggregation in water by absorption spectrum: construct at 87.8 µM, compared with EtNBS in acidified methanol
Source text: Spectra were acquired using a home-built spectrometer that made use of a white light source for absorption measurements and a 655 nm LED for EtNBS excitation. Transmitted or absorbed light was collected and fiber-delivered to a QE65000 spectrometer (Ocean Optics) for spectral acquisition.

monolayer OVCAR5 cells [3] = assay: Photodynamic therapy and dark toxicity in monolayer cultures, MTT viability assay
Description: (§4) The MTT assay was used to evaluate cellular viability of PDT-treated monolayer cultures. […] The MTT reagent (Thiazolyl Blue Tetrazolium Bromide, Sigma) was administered to cells in warmed complete cell culture media at a concentration of 1 mg/mL. Growth medium was gently aspirated from wells so as not to remove weakly adhered cells and was replaced with MTT media solution (160 µL). Cells were then returned cells to the 37 °C incubator and kept under 5% CO2 for 60 minutes. After incubating cells, the MTT treatment solution was carefully and completely aspirated from wells, with DMSO then added (180 µL) to extract cellular Formazan. After incubating samples for 15 minutes at room temperature while periodically rocking plates to completely and uniformly dissolve Formazan crystals, Formazan-containing DMSO was aliquoted (50 µL volumes from each well in triplicate) into a 96-well plate alongside wells containing an equal volume of DMSO to be used for background subtraction. The absorbance of Formazan at 540 nm was then measured using a SpectraMax M5 (Molecular Devices) plate reader.
(§5) After averaging measured absorbance values, background-subtraction was carried out and the standard deviation of the experimental values was calculated. For each individual sample group or treatment condition, the background-subtracted average absorbance value was normalized to that of the untreated (“NT”) control group to obtain the normalized cellular viabilities. […] All measurements were performed in triplicate to ensure high quality data collection.
(§6) All steps involving the manipulation of photosensitizers were carried out under subdued lighting to the extent that it was possible to avoid artifacts from unintentional photodynamic effects. Wells within each dish were spaced far apart from each other to ensure minimal light administration cross-talk. All manipulations of media or other culture liquids were done manually, specifically avoiding the use of vacuum aspiration techniques to avoid the unintended removal of weakly adhered cells before, during or after therapy.
(§7) Sequential blocking of integrins with cRGD peptide was achieved by administering a 10-fold excess of cRGD peptide (50 µM) in warmed DPBS to cells and incubating for a duration of 3 hours at 37 °C in a 5% CO2 incubator. Blocking solution was removed and replaced with photosensitizer-containing treatment media without performing a washing step and cells were immediately returned to the incubator for the appropriate time.
(§8) Concentrated stock solutions of photosensitizers were diluted in and administered to cells in warmed complete cell culture media. […] Integrin-dependent PDT efficacy was evaluated using 10 µM photosensitizer doses. The comparison of PEG-dependent enhancement in PDT was evaluated using 5 µM photosensitizer doses. […]

[4] = system: OVCAR5 cell line engineered to ectopically overexpress the α5 integrin; assay: Integrin-dependent uptake in monolayer culture, confocal fluorescence microscopy; assay type: cell-based
Description: as §1, §2

monolayer OVCAR5 cells [5] = system: monolayer OVCAR5 cells
Description: as §4, §5, §6, §7, §8

[6] = Reactive oxygen species generation, singlet oxygen sensor green (SOSG) fluorogenic assay
Description: (§3) HPF (H36004) and SOSG (S36002) were purchased from Life Technologies and were used as directed by the manufacturer’s protocol. Working solutions were prepared at 10 µM in DPBS or 5 µM TRIS buffer (pH 7.5) for HPF and SOSG, respectively, using 10 µM concentrations of the appropriate photosensitizer. All sample irradiation was carried out using 660 nm-centered LED-generated light (M660L3, Thorlabs) at an irradiance of 100 mW/cm^2. Irradiation of 80 µL sample volumes was carried out in clear plastic 96-well plates, with the emission of the ROS probes measured with a plate reader (SpectraMax m5, Molecular Devices). Experiments were performed in triplicate and experimental values (N = 3) were averaged and background-subtraction was performed.

[7] = Reactive oxygen species generation, hydroxyphenyl fluorescein (HPF) fluorogenic assay; conditions: 10 µM photosensitizer, 660 nm
Description: as §3

CCNc1cc2sc3cc(=[N+](CC)CC)ccc-3nc2c2ccccc12.[Cl-] [EtNBS]
Drop in viability due solely to dark toxicity (monolayer OVCAR5 cells [1]): 70%
Photosensitizer uptake of free EtNBS relative to the construct (OVCAR5 cells; relative comparison): up to two orders of magnitude greater uptake
Aggregation in water by absorption spectrum (Supplementary Fig. 3) ([2]; 5 µM concentration): displays a blue shift
Aggregation in water by absorption spectrum [2]: formation of aggregates distorts the spectrum

N=C(N)NCCC[C@@H]1NC(=O)[C@H](CCCCN)NC(=O)[C@@H](Cc2ccccc2)NC(=O)[C@H](CC(=O)O)NC(=O)CNC1=O [cRGD, cRGDfK, reference compound]
Toxicity of cRGD administered solely to cells (monolayer OVCAR5 cells [3]; cRGD only, not exposed to light, MTT): did not result in any measured toxicity

DOTA-Lys(ETNBS)-Lys(PEG5K)-β-Ala-Cys(DBCO-PEG4-cRGD) (head to tail) [EtNBS construct, cRGD integrin-targeted, 5 kDa PEGylated EtNBS photodynamic therapy construct with DOTA]
Uptake in alpha5 integrin overexpressing OVCAR5 versus OVCAR5 ([4]; 10 µM, 3 hours incubation, 37 °C, fluorescence excited at 635 nm, 670 nm emission): significantly greater
Uptake of PEGylated versus unPEGylated construct in overexpressing cells ([4]; alpha5 integrin overexpressing OVCAR5 cells): take up more
Reduction in viability after PDT (monolayer OVCAR5 cells [3]; 5 µM photosensitizer, 3 hour incubation, 660 nm at 100 mW/cm^2, 100 J/cm^2 light dose, MTT 24 hours post-treatment, triplicate): 60%
PDT effect after pre-incubation with free cRGD (monolayer OVCAR5 cells [3]; pre-treated with cRGD 50 µM (tenfold molar excess) 3 hours, then construct 5 µM, 100 J/cm^2 at 660 nm, MTT): protected the cells against PDT
Toxicity without light, small scale experiments (monolayer OVCAR5 cells [5]): equally harmless
ROS generation measured by SOSG versus free EtNBS ([6]; 10 µM photosensitizer, 660 nm, 100 mW/cm^2, all light doses tested (5–40 J/cm^2), triplicate): greater than that of free EtNBS
Yield of singlet oxygen (SOSG) relative to free EtNBS ([6]; equimolar 10 µM photosensitizer, 5 µM SOSG in TRIS buffer pH 7.5, 660 nm LED, 100 mW/cm^2, highest light dose (40 J/cm^2), mean of triplicate): ~100%
Photosensitizer concentration within the cells relative to administered free EtNBS (OVCAR5 cells; EtNBS references at 250 nM and 500 nM): many times lower
Enhancement of HPF fluorescence versus free EtNBS ([7]; 10 µM HPF in DPBS, 100 mW/cm^2, dose of 50 J/cm^2, triplicate): two-fold enhancement
Photodynamic activity measured by HPF versus free EtNBS ([7]; 100 mW/cm^2, all light doses (5–100 J/cm^2), triplicate): considerably greater photodynamic activity
Aggregation in water by absorption spectrum [2]: does not show aggregation
